The record followed here is patent US4622336A, “3,3-dialkyl-and 3,3-alkylene-indoline derivatives, processes for their production and pharmaceutical compositions comprising them” (Sandoz Ltd., priority 1982, dated 1986).

The test system of test [1] is arthritis pain in the rat. The test is described as follows: arthritis pain test in the rat (Test A). Type of test: in vivo. The settings on record: po. As to the method: (A) the arthritis pain test in the rat [based on the method of A. W. Pircio et al., Eur. J. Pharmacol., 31, 207-215 (1975)] at dosages of from 3 to 50 mg/kg p.o.; and […]
For another test, the system named is inflamed rat-hind-paw. Description: Randall-Selitto test on the inflamed rat-hind-paw (Test B). The class given is in vivo. The settings on record: po. As for the experimental part: (B) the Randall-Selitto test on the inflamed rat-hind-paw [Arch. Int. Pharmacodyn. 61, 409-419 (1957)] at dosages of from 20 to 200 mg/kg p.o..

What is called ED50 is the midpoint of the dose-response relation. High values mean a need for a large dose, low ones an effect at a small dose. Turning to `CCOc1ccc2c(c1)NCC2(C)C` [II, 3,3-Dimethyl-6-ethoxy-indoline], the ED50 in test [1] is 7 mg/kg; with inflamed rat-hind-paw, 78 mg/kg.

For the molecule `CCOc1ccc2c(c1)C(C)(C)CN2` [I, 3,3-Dimethyl-5-ethoxy-indoline], the figures for the ED50 (in test [1]; in the test on inflamed rat-hind-paw) were 18 mg/kg and 133 mg/kg, respectively.

`CC(=O)Nc1ccc(O)cc1` [III, Paracetamol, reference compound] displayed an ED50 in test [1] of 174 mg/kg.
